Legend:
[1] = system: a plurality of harmful plants; test: Herbicidal pre-emergence action, greenhouse pot test; assay type: in vivo; conditions: pre-emergence method; application rate of 320 g or less of active substance per hectare
Text: Seeds of monocotyledonous and dicotyledonous weed plants and crop plants are placed in wood-fiber pots in sandy loam and covered with soil. The compounds (I) according to the invention, formulated in the form of wettable powders (WP), are then applied as aqueous suspension or emulsion at a water application rate of 600 l/ha (converted) with the addition of 0.2% of wetting agent to the surface of the covering soil. After the treatment, the pots are placed in a greenhouse and kept under good growth conditions for the test plants. After about 3 weeks, the effect of the preparations is scored visually in comparison with untreated controls as percentages. For example, 100% activity=the plants have died, 50% herbicidal activity or damage=the plants have been reduced by 50% or the plant mass has been reduced by 50%, 0% activity=like control plants.

[2] = system: a plurality of harmful plants; test: Herbicidal post-emergence action, greenhouse pot test; assay type: in vivo; conditions: post-emergence method
Description: Seeds of monocotyledonous and dicotyledonous weed and crop plants are placed in sandy loam in wood-fiber pots, covered with soil and cultivated in a greenhouse under good growth conditions. 2 to 3 weeks after sowing, the test plants are treated at the one-leaf stage, where the compounds (I) according to the invention, formulated in the form of wettable powders (WP), are applied by spraying as aqueous suspension or emulsion at a water application rate of 600 l/ha (converted) with the addition of 0.2% of wetting agent to the green parts of the plants. After the test plants have been kept in the greenhouse under optimum growth conditions for about 3 weeks, the activity of the preparations is rated visually in comparison to untreated controls in percent (%): For example, 100% activity=the plants have died, 50% herbicidal activity or damage=the plants have been reduced by 50% or the plant mass has been reduced by 50%, 0% activity=like control plants.

SMILES | herbicidal activity against a plurality of harmful plants [1] | herbicidal activity against a plurality of harmful plants [2]
COC(=O)CC(c1c(F)cccc1F)C(C#N)c1ccc(Cl)cc1 (mixture of isomers) [Example 1-6] | good herbicidal activity | good herbicidal activity
COC(=O)CC(c1c(F)cccc1F)C(C#N)c1ccc(F)c(Cl)c1 (mixture of isomers) [Example 1-15] | good herbicidal activity | good herbicidal activity
COC(=O)CC(c1c(F)cccc1F)C(C#N)c1cccc(I)c1 (mixture of isomers) [Example 1-19] | good herbicidal activity | good herbicidal activity
COC(=O)CC(c1c(F)cccc1F)C(C#N)c1ccc(OC)c(OC)c1 (mixture of isomers) [Example 1-27] | good herbicidal activity | good herbicidal activity
N#CC(c1ccc(F)c(F)c1)C(CC(=O)O)c1c(F)cccc1F (stereo not drawn) [Example 1-106, 4-Cyano-3-(2,6-difluorophenyl)-4-(3,4-difluorophenyl)butanoic acid] | good herbicidal activity | good herbicidal activity
COC(=O)CC(c1c(F)cccc1F)C(C#N)c1ccc(F)c(Br)c1 (mixture of isomers) [Example 1-232] | good herbicidal activity | good herbicidal activity
COC(=O)C[C@@H](c1c(F)cccc1F)[C@@H](C#N)c1ccc(F)c(Cl)c1 [Example 2-15] | good herbicidal activity | 
COC(=O)C[C@@H](c1c(F)cccc1F)[C@@H](C#N)c1ccc(F)c(F)c1 [Example 2-11, Methyl (3R,4R)-4-cyano-3-(2,6-difluorophenyl)-4-(3,4-difluorophenyl)-butanoate] | good herbicidal activity | good herbicidal activity
COC(=O)CC(c1c(F)cccc1F)C(C#N)c1cc(F)cc(C(F)(F)F)c1 (mixture of isomers) [Example 1-30] | good herbicidal activity | good herbicidal activity
COC(=O)CC(c1c(F)cccc1F)C(C#N)c1ccc(C(F)(F)F)c(F)c1 (mixture of isomers) [Example 1-29] | good herbicidal activity | good herbicidal activity
COC(=O)CC(c1c(F)cccc1F)C(C#N)c1ccc(F)c(C#N)c1 (mixture of isomers) [Example 1-233] | good herbicidal activity | good herbicidal activity
COC(=O)CC(c1c(F)cccc1F)C(C#N)c1ccc(Cl)c(Cl)c1 (mixture of isomers) [Example 1-16] | good herbicidal activity | good herbicidal activity
COC(=O)CC(c1c(F)cccc1F)C(C#N)c1ccc(OC)c(F)c1 (mixture of isomers) [Example 1-28] | good herbicidal activity | good herbicidal activity
COC(=O)C[C@@H](c1c(F)cccc1F)[C@@H](C#N)c1ccc(F)c(C#N)c1 [Example 2-230] |  | good herbicidal activity
CCOC(=O)C[C@@H](c1c(F)cccc1F)[C@@H](C#N)c1ccc(F)c(F)c1 [Example 2-107, Ethyl (3R,4R)-4-cyano-3-(2,6-difluorophenyl)-4-(3,4-difluorophenyl)-butanoate] | good herbicidal activity | good herbicidal activity
COC(=O)CC(c1c(F)cccc1F)C(C#N)c1ccccc1OC (mixture of isomers) [Example 1-24] | good herbicidal activity | good herbicidal activity
COC(=O)C[C@@H](c1c(F)cccc1F)[C@@H](C#N)c1ccc(F)c(Br)c1 [Example 2-229] | good herbicidal activity | good herbicidal activity
COC(=O)CC(c1c(F)cccc1F)C(C#N)c1ccc(F)c(F)c1 (stereo not drawn) [Example 1-11, methyl 4-cyano-3-(2,6-difluorophenyl)-4-(3,4-difluorophenyl)butanoate] | good herbicidal activity | 
COC(=O)CC(c1c(F)cccc1F)C(C#N)c1ccc(OC)cc1 (mixture of isomers) [Example 1-26] | good herbicidal activity | good herbicidal activity
COC(=O)CC(c1c(F)cccc1F)C(C#N)c1ccc(F)c(F)c1 (stereo not drawn) [Example 1-231, methyl threo-4-cyano-3-(2,6-difluorophenyl)-4-(3,4-difluorophenyl)-butanoate] | good herbicidal activity | 
COC(=O)CC(c1c(F)cccc1F)C(C#N)c1ccc2ccccc2c1 (mixture of isomers) [Example 1-235] | good herbicidal activity | 
COC(=O)CC(c1c(F)cccc1F)C(C#N)c1cc(F)cc(F)c1 (mixture of isomers) [Example 1-12] | good herbicidal activity | good herbicidal activity
N#CC(c1cc(F)cc(C(F)(F)F)c1)C(CC(=O)O)c1c(F)cccc1F (mixture of isomers) [Example 1-228] | good herbicidal activity | good herbicidal activity
COC(=O)CC(c1c(F)cccc1F)C(C#N)c1ccc(F)cc1 (mixture of isomers) [Example 1-3] | good herbicidal activity | good herbicidal activity
COC(=O)CC(c1c(F)cccc1F)C(C#N)c1ccc(F)c(F)c1 (stereo not drawn) [Example 1-230, methyl erythro-4-cyano-3-(2,6-difluorophenyl)-4-(3,4-difluorophenyl)butanoate] | good herbicidal activity | good herbicidal activity

From patent publication US20140087945A1, “SUBSTITUTED 4-CYAN-3-(2,6-DIFLUOROPHENYL)-4-PHENYLBUTANOATES, METHOD FOR THE PRODUCTION THEREOF AND USE THEREOF AS HERBICIDES AND PLANT GROWTH REGULATORS” (Bayer Intellectual Property GmbH, priority 2011, published 2014)
